“Also recorded” adds a separate entry of the source.
Columns and labels:
Format in all cases: cell-based, human
NFIA-induced LTNSCs = experiment: Astrocyte differentiation of NFIA-induced LTNSCs after doxycycline removal with glial differentiation factors; conditions: for expression of GFAP after removing the expression of NFIA: NFIA exposed cells, especially in the absence of FGF2 (FIG. 4C)
Method: Typically, regionally patterned neural stem cells are infected with lentiviral particles containing FUW-NFIA and FUW-M2-rtTA and induced with doxycycline (dox) one day after infection. Cells are kept in dox media for a minimum of 5 days and then switched to the astrocyte induction media (N2 media with 10 ng/ml HB-EGF (R&D Systems) and 10 ng/ml Leukemia inhibitory factor (Peprotech)) without dox for a minimum of 5 days. Glial progenitors and astrocytes can be isolated using CD44.
(§1) For immunohistochemistry, cells were fixed in PBS containing 4% paraformaldehyde (EMS) for 10 minutes and permeabilized using PBS with 0.5% Triton-X for 5 minutes and stored in PBS with 0.2% Tween-20. The blocking solution contained 5% donkey serum in PBS with 0.2% Tween-20. Primary antibodies were diluted in the blocking solution and typically incubated overnight at 4 C. Secondary antibodies conjugated to Alexa 488, Alexa 555 or Alexa 647 (Thermo) were added to the cells and incubated for 30 minutes. Nuclei were identified by staining the cells with 4′,6-diamidino-2-phenylindole (DAPI, Thermo).

LTNSCs = experiment: Differentiation of LTNSCs or neural rosettes (no NFIA induction) in media containing gliogenic molecules; conditions: short term, 14 days, no NFIA induction (FIG. 2B)
Method: These cells were also TUJ1 negative implying their homogenous nature of being nearly 100% neural stem cells (FIG. 2A). […] In the FBS condition, the expression of gliogenic factors was assessed and expression of SOX9 and NFIA was more enriched when cultured with FBS compared to the other treatments (FIG. 3).
as §1

neurogenic NSCs [1] = experiment: Cell cycle analysis by FACS on NSCs treated with TGFβ1; conditions: TGFβ1 for 48 hours, FACS (FIG. 12L)
Method: Cells were dissociated nuclei were isolated for cell cycle analysis. Propidium Iodine (250 ng/ml) was added to the cells and analyzed by FACS. A minimum of 10,000 events was analyzed per condition. Data acquired was imported and analyzed by the Flowjo software.

neurogenic NSCs [2] = experiment: Immunofluorescence for NFIA and GFAP after TGFβ treatment followed by LIF medium; conditions: TGFβ followed by LIF-containing medium for 2 weeks (FIG. 12M)
Method: as §1

neurogenic NSCs [3] = experiment: Western blot analysis of NFIA in NSCs treated with TGFβ1; conditions: TGFβ1 for 7 days, Western blot (FIG. 12K)

Molecule: LIF: leukemia inhibitory factor, glial-promoting factor
- GFAP expression (quantitative PCR) (NFIA-induced LTNSCs; 5 days dox then dox removal, +LIF versus +EGF/FGF2 (FIG. 10E)): strongly induced
- efficiency of astrocyte differentiation (GFAP+ cells, AQP4-H2B-GFP reporter) after dox removal (NFIA-induced LTNSCs; LIF compared with BMP4 or FBS): most efficient in generating GFAP+ cells and activating the AQP4-H2B-GFP reporter
- expression of GFAP after removing the expression of NFIA (NFIA-induced LTNSCs): enhanced the expression of GFAP
- fate of LTNSCs: neurons (TUJ1/βIII-Tubulin) versus GFAP+ astrocytes (LTNSCs): became neurons rather than GFAP+ astrocytes; also recorded: increased expression of the neuronal marker TUJ1 rather than the astrocyte marker GFAP

Molecule: TGFβ1: upstream activator of NFIA; transforming growth factor beta
- cells in the G1 phase of the cell cycle (neurogenic NSCs [1]): enriched for cells in the G1 phase of the cell cycle
- appearance of GFAP+ cells (neurogenic NSCs [2]): resulted in the appearance of GFAP+ cells
- expression of NFIA (neurogenic NSCs [3]): induced the expression of NFIA

B1: BMP4: gliogenic molecule, bone morphogenetic protein (protein, UniProt P12644 293-408, looked up)
Bone morphogenetic protein 4: SPKHHSQRARKKNKNCRRHSLYVDFSDVGWNDWIVAPPGYQAFYCHGDCPFPLADHLNSTNHAIVQTLVNSVNSSIPKACCVPTELSAISMLYLDEYDKVVLKNYQEMVVEGCGCR
- expression of GFAP after removing the expression of NFIA (NFIA-induced LTNSCs): enhanced the expression of GFAP
- fate of LTNSCs: neurons (TUJ1/βIII-Tubulin) versus GFAP+ astrocytes (LTNSCs): became neurons rather than GFAP+ astrocytes; also recorded: increased expression of the neuronal marker TUJ1 rather than the astrocyte marker GFAP

From patent publication US20200024574A1, “STEM CELL-DERIVED ASTROCYTES, METHODS OF MAKING AND METHODS OF USE” (MEMORIAL SLOAN-KETTERING CANCER CENTER, priority 2017, published 2020)
